# Laboratory results published in US9809623B2, “α4β7 peptide monomer and dimer antagonists” (Protagonist Therapeutics, Inc., priority 2014, dated 2017).
# Numbered stars: 1 amine (or outer) side, 2 acyl side, 3 side chain; on linkers, the order of the positions; unused ones are H or OH. Bridge positions count the residues as written; N and C are the ends. Square brackets hold non-standard residues; d marks the D form. Peptide text beside a SMILES is read from it. I, II: the chains in the order shown. Diglycolyl = O=C(COCC(=O)[*:2])[*:1]; NMeR = CN[C@@H](CCCNC(=N)N)C(=O)O; Cit = NC(=O)NCCC[C@H](N)C(=O)O; NMeK = CN[C@@H](CCCCN)C(=O)O; Pen = CC(C)(S)[C@H](N)C(=O)O; Dap = NC[C@H](N)C(=O)O
# Assays:
# α4β7 = α4β7 (Homo sapiens, UniProt P13612+P26010); test: α4β7-MAdCAM Cell Adhesion Assay (RPMI 8866 human cells); type: cell-based; parameters: host or cells: RPMI 8866 human B lymphoblastoid cells; details: Table 3-B, Potency (α4β7); range classes; read-out: α4β7 cell (Hu) IC50
# Outline: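 Washed RPMI 8866 cells (200,000/well) in DMEM with 0.1% BSA, 10 mM HEPES pH 7, 1 mM MnCl2 adhered to rh MAdCAM-1/Fc-coated wells with serially diluted peptides, 30-45 min at 37 °C. After three washes, bound cells quantified by MTT, A570, cell-free background subtracted for dose response.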
# [1] = Simulated Intestinal Fluid (SIF) Stability Assay; type: in vitro ADME, porcine; details: pig, simulated intestinal fluid (SIF) with 1% porcine pancreatin, pH 6.5, Table 3-B; > means experiment was stopped at that time and half life was not reached; read-out: Stabilty SIF t1/2
# Description: Studies were carried out in simulated intestinal fluid (SIF) to evaluate intestinal stability of the peptide molecules of the instant invention. To prepare the SIF reagent, blank FASSIF was prepared by dissolving 0.348 g NaOH, 3.954 g sodium phosphate monobasic monohydrate and 6.186 g NaCl in a final volume of 1 liter water (final pH=6.5). To this solution, 24 g porcine pancreatin (Sigma catalog P7545) was added and stirred for 30 minutes (final pancreatin concentration is 2.4%). The solution was filtered through a cheese cloth and a No. 1 Whatman filter, and 10 ml aliquots were stored at −70° C. To run the reaction, a 10 ml aliquot was thawed at 37° C., and 125 ul aliquots were removed and mixed with an equal volume of blank FASSIF. The peptide stock solution (10 mM in 100% DMSO) was diluted 75-fold in blank FASSIF. A 50 μl aliquot of the diluted peptide was combined with 125 μl pancreatin (2.4%) and 125 μl blank FASSIF to yield final concentrations of 1% pancreatin and 22 μM peptide. The reactions were incubated at 37° C., and at various time points 50 μl aliquots were removed and added to 200 μl of quench solution containing 50% acetonitrile, 50% methanol, 5% formic acid, and 1 μg/ml internal standard. The quenched samples were centrifuged at 10,000 rpm for 10 minutes, and the supernatants were analyzed by LCMS/MS. The percent remaining at each time point was calculated based on the peak area response ratio of test to compound to internal standard. Half-lives were calculated by fitting to a first-order exponential decay equation using GraphPad.
# α4β7, sequence (P13612 34-1032): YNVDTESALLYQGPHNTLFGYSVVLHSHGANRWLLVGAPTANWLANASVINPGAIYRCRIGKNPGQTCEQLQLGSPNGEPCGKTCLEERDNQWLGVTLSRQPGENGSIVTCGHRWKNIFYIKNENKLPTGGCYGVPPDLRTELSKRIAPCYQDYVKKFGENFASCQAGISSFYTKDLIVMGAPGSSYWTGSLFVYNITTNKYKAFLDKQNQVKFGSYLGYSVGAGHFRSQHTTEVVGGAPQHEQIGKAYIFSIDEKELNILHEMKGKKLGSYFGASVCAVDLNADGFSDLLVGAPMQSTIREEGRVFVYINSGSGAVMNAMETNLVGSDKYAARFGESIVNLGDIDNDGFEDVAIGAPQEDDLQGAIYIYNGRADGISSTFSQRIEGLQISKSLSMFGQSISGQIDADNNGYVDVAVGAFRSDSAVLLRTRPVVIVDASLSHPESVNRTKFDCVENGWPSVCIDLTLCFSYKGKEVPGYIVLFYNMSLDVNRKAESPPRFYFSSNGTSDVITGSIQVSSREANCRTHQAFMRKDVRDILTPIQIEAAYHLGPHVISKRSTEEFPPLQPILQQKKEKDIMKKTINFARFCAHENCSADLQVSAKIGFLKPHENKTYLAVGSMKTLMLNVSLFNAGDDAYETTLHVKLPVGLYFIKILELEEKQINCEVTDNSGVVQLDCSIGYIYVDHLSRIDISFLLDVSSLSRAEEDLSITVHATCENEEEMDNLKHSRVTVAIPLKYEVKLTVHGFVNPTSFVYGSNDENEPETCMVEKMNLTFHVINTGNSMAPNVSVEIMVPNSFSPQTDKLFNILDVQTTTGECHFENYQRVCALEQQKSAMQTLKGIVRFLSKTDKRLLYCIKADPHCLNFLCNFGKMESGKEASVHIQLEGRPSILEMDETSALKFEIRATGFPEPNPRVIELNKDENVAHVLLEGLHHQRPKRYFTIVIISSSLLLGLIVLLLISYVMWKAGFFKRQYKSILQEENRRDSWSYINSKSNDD
# α4β7, sequence (P26010 20-798): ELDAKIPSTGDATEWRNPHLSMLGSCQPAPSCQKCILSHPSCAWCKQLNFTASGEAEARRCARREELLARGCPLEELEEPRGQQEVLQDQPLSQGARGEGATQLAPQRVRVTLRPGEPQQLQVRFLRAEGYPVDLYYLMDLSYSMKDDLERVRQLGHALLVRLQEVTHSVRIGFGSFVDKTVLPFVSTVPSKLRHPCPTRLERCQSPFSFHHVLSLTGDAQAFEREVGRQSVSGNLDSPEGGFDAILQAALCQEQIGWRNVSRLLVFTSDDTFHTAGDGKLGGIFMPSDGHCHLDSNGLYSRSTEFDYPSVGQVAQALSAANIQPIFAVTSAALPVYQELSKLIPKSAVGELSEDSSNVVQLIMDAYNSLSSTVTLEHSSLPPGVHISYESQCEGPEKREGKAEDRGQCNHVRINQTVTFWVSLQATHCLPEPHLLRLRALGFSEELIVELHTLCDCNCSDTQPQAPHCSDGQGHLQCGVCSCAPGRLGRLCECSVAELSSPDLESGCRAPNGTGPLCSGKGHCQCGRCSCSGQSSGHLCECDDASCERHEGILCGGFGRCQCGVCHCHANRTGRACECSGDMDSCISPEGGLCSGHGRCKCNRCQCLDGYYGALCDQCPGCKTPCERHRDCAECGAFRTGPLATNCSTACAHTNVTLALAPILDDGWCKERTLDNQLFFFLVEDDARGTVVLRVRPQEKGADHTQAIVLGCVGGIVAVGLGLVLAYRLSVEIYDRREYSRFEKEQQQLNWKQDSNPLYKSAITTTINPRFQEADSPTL
Structure (SMILES),IC50 (α4β7) [nM],half-life at 22 μM [1] [h]
"CC(=O)N[C@@H]1C(=O)N(C)[C@@H](CCCNC(=N)N)C(=O)N[C@@H](CO)C(=O)N[C@@H](CC(=O)O)C(=O)N[C@@H]([C@@H](C)O)C(=O)N[C@@H](CC(C)C)C(=O)N[C@H](C(=O)N[C@@H](Cc2c[nH]c3ccccc23)C(=O)N(C)[C@@H](CCCCNC(=O)COCC(=O)NCCCC[C@@H](C(N)=O)N(C)C(=O)[C@H](Cc2c[nH]c3ccccc23)NC(=O)[C@H]2NC(=O)[C@H](CC(C)C)NC(=O)[C@H]([C@@H](C)O)NC(=O)[C@H](CC(=O)O)NC(=O)[C@H](CO)NC(=O)[C@H](CCCNC(=N)N)N(C)C(=O)[C@@H](NC(C)=O)C(C)(C)SSC2(C)C)C(N)=O)C(C)(C)SSC1(C)C [compound 77] (I: Ac-[Pen][NMeR]SDTL[Pen]W[NMeK]-NH2 / II: Ac-[Pen][NMeR]SDTL[Pen]W[NMeK]-NH2; disulfide I:1-I:7, II:1-II:7; linker I:9-II:9 via Diglycolyl)",100 to 500,> 3
CC(=O)N[C@@H]1C(=O)N(C)[C@@H](CCCNC(=N)N)C(=O)N[C@@H](CO)C(=O)N[C@@H](CC(=O)O)C(=O)N[C@@H]([C@@H](C)O)C(=O)N[C@@H](CC(C)C)C(=O)N[C@H](C(=O)N[C@@H](Cc2c[nH]c3ccccc23)C(=O)N[C@H](CCC(=O)O)C(=O)N[C@@H](CN)C(N)=O)C(C)(C)SSC1(C)C [compound 55] (Ac-[Pen][NMeR]SDTL[Pen]W[dE][Dap]-NH2; disulfide 1-7),100 to 500,> 3
"CC(=O)N[C@@H]1C(=O)N(C)[C@@H](CCCNC(=N)N)C(=O)N[C@@H](CO)C(=O)N[C@@H](CC(=O)O)C(=O)N[C@@H]([C@@H](C)O)C(=O)N[C@@H](CC(C)C)C(=O)N[C@H](C(=O)N[C@@H](Cc2c[nH]c3ccccc23)C(=O)N[C@@H](CCCNC(N)=O)C(=O)N[C@H](CCCCNC(=O)COCC(=O)NCCCC[C@@H](NC(=O)[C@H](CCCNC(N)=O)NC(=O)[C@H](Cc2c[nH]c3ccccc23)NC(=O)[C@H]2NC(=O)[C@H](CC(C)C)NC(=O)[C@H]([C@@H](C)O)NC(=O)[C@H](CC(=O)O)NC(=O)[C@H](CO)NC(=O)[C@H](CCCNC(=N)N)N(C)C(=O)[C@@H](NC(C)=O)C(C)(C)SSC2(C)C)C(N)=O)C(N)=O)C(C)(C)SSC1(C)C [compound 84] (I: Ac-[Pen][NMeR]SDTL[Pen]W[Cit][dK]-NH2 / II: Ac-[Pen][NMeR]SDTL[Pen]W[Cit][dK]-NH2; disulfide I:1-I:7, II:1-II:7; linker I:10-II:10 via Diglycolyl)",10 to 25,< 0.333
"CC(=O)N[C@@H]1C(=O)N(C)[C@@H](CCCNC(=N)N)C(=O)N[C@@H](CO)C(=O)N[C@@H](CC(=O)O)C(=O)N[C@@H]([C@@H](C)O)C(=O)N[C@@H](CC(C)C)C(=O)N[C@H](C(=O)N[C@H](Cc2ccccc2)C(=O)N[C@H](CCC(=O)O)C(=O)N[C@H](CCCCNC(=O)COCC(=O)NCCCC[C@@H](NC(=O)[C@@H](CCC(=O)O)NC(=O)[C@@H](Cc2ccccc2)NC(=O)[C@H]2NC(=O)[C@H](CC(C)C)NC(=O)[C@H]([C@@H](C)O)NC(=O)[C@H](CC(=O)O)NC(=O)[C@H](CO)NC(=O)[C@H](CCCNC(=N)N)N(C)C(=O)[C@@H](NC(C)=O)C(C)(C)SSC2(C)C)C(N)=O)C(N)=O)C(C)(C)SSC1(C)C [compound 2] (I: Ac-[Pen][NMeR]SDTL[Pen][dF][dE][dK]-NH2 / II: Ac-[Pen][NMeR]SDTL[Pen][dF][dE][dK]-NH2; disulfide I:1-I:7, II:1-II:7; linker I:10-II:10 via Diglycolyl)",100 to 500,> 3
